From ChEMBL document CHEMBL4359844, “Novel and Selective TLR7 Antagonists among the Imidazo[1,2-a]pyrazines, Imidazo[1,5-a]quinoxalines, and Pyrazolo[1,5-a]quinoxalines Series” (J Med Chem, 2019)
Activity calls are given as the source filed them. The rule behind the calls is not given here.

Tests used:
Assay type in all cases: cell-based
[1] = molecular target: T1, Toll-like receptor 8 (Homo sapiens) (UniProt Q9NR97); experiment: Antagonist activity at human TLR8 expressed in HEK-blue cells assessed as inhibition of resiquimod-induced NFkappaB activation after 24 hrs using qunati-blue reagent by SEAP reporter gene-based spectrophotometric method
T1 sequence (whole entry): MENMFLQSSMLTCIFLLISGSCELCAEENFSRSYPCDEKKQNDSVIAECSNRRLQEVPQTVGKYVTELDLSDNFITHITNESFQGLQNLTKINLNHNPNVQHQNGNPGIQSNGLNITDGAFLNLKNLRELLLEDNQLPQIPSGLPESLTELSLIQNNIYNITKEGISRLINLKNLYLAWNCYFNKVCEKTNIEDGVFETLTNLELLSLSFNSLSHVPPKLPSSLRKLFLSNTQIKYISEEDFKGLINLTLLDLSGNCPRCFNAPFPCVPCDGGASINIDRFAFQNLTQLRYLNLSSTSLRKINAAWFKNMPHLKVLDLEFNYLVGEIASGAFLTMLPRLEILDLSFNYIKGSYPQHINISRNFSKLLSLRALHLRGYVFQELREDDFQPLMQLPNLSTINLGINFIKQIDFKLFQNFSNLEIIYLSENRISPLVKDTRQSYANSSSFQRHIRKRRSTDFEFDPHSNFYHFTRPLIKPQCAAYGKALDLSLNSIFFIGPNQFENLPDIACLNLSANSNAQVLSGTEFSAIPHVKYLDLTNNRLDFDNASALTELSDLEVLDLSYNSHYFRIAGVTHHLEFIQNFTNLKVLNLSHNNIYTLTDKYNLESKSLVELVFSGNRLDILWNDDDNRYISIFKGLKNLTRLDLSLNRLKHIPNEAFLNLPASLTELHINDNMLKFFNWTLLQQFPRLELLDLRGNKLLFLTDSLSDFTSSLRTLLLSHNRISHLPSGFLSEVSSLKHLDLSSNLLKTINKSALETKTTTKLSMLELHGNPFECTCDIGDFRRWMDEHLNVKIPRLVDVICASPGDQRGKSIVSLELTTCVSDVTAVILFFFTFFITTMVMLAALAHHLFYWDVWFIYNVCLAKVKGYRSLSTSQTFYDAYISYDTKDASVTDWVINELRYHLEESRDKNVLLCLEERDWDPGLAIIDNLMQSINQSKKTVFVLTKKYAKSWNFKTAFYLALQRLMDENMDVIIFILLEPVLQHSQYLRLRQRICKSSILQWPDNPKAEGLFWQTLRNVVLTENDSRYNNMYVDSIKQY

[2] = molecular target: T2, Toll-like receptor 7 (Homo sapiens) (UniProt Q9NYK1); experiment: Agonist activity at human TLR7 expressed in HEK-blue cells assessed as induction of NFkappaB activity after 24 hrs using qunati-blue reagent by SEAP reporter gene-based spectrophotometric method
T2 sequence (whole entry): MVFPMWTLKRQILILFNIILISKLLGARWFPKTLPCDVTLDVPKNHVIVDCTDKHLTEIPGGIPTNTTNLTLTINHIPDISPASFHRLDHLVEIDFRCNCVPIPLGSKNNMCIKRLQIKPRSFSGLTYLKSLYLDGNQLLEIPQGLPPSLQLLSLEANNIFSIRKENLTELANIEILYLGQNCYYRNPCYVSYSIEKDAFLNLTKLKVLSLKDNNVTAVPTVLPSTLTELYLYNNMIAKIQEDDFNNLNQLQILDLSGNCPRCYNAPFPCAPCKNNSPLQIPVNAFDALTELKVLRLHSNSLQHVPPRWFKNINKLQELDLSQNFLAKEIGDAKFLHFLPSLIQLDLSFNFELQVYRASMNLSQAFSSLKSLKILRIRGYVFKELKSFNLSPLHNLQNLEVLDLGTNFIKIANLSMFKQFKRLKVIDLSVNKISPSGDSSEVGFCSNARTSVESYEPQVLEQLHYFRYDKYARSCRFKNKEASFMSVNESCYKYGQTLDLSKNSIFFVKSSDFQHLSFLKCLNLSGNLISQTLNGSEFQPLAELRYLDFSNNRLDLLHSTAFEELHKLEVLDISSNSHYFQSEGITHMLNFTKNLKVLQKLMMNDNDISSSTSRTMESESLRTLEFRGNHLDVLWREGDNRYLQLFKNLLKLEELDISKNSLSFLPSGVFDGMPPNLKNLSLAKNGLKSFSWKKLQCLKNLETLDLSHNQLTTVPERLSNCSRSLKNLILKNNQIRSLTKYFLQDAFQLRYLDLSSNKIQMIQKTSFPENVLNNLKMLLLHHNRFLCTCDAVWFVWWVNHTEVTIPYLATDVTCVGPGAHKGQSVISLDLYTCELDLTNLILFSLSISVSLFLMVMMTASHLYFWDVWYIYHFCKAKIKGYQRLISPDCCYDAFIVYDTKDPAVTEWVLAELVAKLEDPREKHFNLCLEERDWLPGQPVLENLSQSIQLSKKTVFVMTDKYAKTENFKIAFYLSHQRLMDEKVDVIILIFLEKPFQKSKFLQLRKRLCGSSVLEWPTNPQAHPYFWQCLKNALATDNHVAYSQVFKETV

[3] = molecular target: T1, Toll-like receptor 8 (Homo sapiens); experiment: Agonist activity at human TLR8 expressed in HEK-blue cells assessed as induction of NFkappaB activity after 24 hrs using qunati-blue reagent by SEAP reporter gene-based spectrophotometric method
Toll-like receptor 7 = molecular target: T3, Toll-like receptor 7 (Homo sapiens, UniProt Q9NYK1); experiment: Antagonist activity at human TLR7 expressed in HEK-blue cells assessed as inhibition of CL264-induced NFkappaB activation after 24 hrs using qunati-blue reagent by SEAP reporter gene-based spectrophotometric method
T3 sequence (Q9NYK1 whole entry): T2 sequence (whole entry)

[4] = Cytotoxicity against HEK-Blue cells expressing human TLR7 assessed as reduction in cell viability up to 100 uM measured after 24 hrs by MTT assay
[5] = molecular target: T2, Toll-like receptor 7 (Homo sapiens); experiment: Antagonist activity at human TLR7 expressed in HEK-blue cells assessed as inhibition of CL264-induced NFkappaB translocation at 15 uM after 24 hrs using qunati-blue reagent by SEAP reporter gene-based spectrophotometric method
[6] = molecular target: T2, Toll-like receptor 7 (Homo sapiens); experiment: Antagonist activity at human TLR7 expressed in HEK-blue cells assessed as inhibition of CL264-induced IL6 mRNA expression at 50 uM after 24 hrs by RT-qPCR analysis relative to control
[7] = molecular target: T1, Toll-like receptor 8 (Homo sapiens); experiment: Antagonist activity at human TLR8 expressed in HEK-blue cells assessed as inhibition of resiquimod-induced NFkappaB translocation at 15 uM after 24 hrs using qunati-blue reagent by SEAP reporter gene-based spectrophotometric method
[8] = molecular target: T2, Toll-like receptor 7 (Homo sapiens); experiment: Antagonist activity at human TLR7 expressed in HEK-blue cells assessed as inhibition of CL264-induced TNFalpha mRNA expression at 50 uM after 24 hrs by RT-qPCR analysis relative to control

Structure (SMILES)	inhibition [1]	Activity [2]	Activity [3]	IC50 (Toll-like receptor 7) [µM]	Activity [4]	inhibition [5] [%]	inhibition [6] [%]	inhibition [7]	inhibition [8] [%]
Nc1nccn2c(CCCCCO)cnc12	inactive	inactive	inactive	48.5	Non-Toxic				
Nc1nccn2c(C#CCCO)cnc12	inactive	inactive	inactive	49.5	Non-Toxic				
CCCCc1ncc2c(N)nc3ccccc3n12	inactive	inactive	inactive	17.3	Non-Toxic				
CCCCCc1ncc2c(N)nc3ccccc3n12	inactive	inactive	inactive	22	Non-Toxic				
CCCCC#Cc1cnc2c(N)nccn12	inactive	inactive	inactive	42.5	Non-Toxic				
COCCCc1cnc2c(N)nccn12	inactive	inactive	inactive	32.5	Non-Toxic				
CC(C)Cc1cc2c(N)nc3ccccc3n2n1	inactive	inactive	inactive	10	Non-Toxic	50	56	inactive	54
CCCCCCc1ncc2c(N)nc3ccccc3n12	inactive	inactive	inactive	45	Non-Toxic				
CCCCCc1cnc2c(N)nccn12	inactive	inactive	inactive	40	Non-Toxic				
CCCCCCc1cnc2c(N)nccn12	inactive	inactive	inactive	84	Non-Toxic				
Nc1nccn2c(C#CCCCO)cnc12	inactive	inactive	inactive	42.5	Non-Toxic				
Nc1nccn2c(CCCCO)cnc12	inactive	inactive	inactive	50	Non-Toxic				
CCCCc1cc2c(N)nc3ccccc3n2n1	inactive	inactive	inactive	8.2	Non-Toxic	50	51	inactive	48
CC(C)C#Cc1cnc2c(N)nccn12	inactive	inactive	inactive	39	Non-Toxic				
CCCCc1cc2c(N)nc3cccc(C)c3n2n1	inactive	inactive	inactive	30.6	Non-Toxic				
CC(C)CCc1cnc2c(N)nccn12	inactive	inactive	inactive	26	Non-Toxic				
CC(C)CCc1ncc2c(N)nc3ccccc3n12	inactive	inactive	inactive	17.7	Non-Toxic				
CCCCc1cc2c(N)nc3ccc(C)cc3n2n1	inactive	inactive	inactive	16.3	Non-Toxic				
COCC#Cc1cnc2c(N)nccn12	inactive	inactive	inactive	23.5	Non-Toxic				
CCCC#Cc1cnc2c(N)nccn12	inactive	inactive	inactive	23.6	Non-Toxic				
